Data published in patent US9073863B2, “Cyanoquinoline compounds having activity in correcting mutant-CFTR processing and increasing ion transport and uses thereof” (The Regents of the University of California, priority 2011, dated 2015).

What was measured:
ΔF508-CFTR [1] = target: T1, ΔF508-CFTR (Homo sapiens, UniProt P13569, DEL508-508); test: Potentiator assay, YFP fluorescence plate reader iodide influx in low-temperature rescued ΔF508-CFTR expressing FRT cells; format: cell-based; conditions: for potentiator activity, in words: piperazine ring in place of diamino ethylene tether
T1 construct: expressed in transfected cells; host or cells: Fischer rat thyroid (FRT) epithelial cells, stably transfected
T1 sequence (P13569 with tags, fused parts or gaps DEL508-508): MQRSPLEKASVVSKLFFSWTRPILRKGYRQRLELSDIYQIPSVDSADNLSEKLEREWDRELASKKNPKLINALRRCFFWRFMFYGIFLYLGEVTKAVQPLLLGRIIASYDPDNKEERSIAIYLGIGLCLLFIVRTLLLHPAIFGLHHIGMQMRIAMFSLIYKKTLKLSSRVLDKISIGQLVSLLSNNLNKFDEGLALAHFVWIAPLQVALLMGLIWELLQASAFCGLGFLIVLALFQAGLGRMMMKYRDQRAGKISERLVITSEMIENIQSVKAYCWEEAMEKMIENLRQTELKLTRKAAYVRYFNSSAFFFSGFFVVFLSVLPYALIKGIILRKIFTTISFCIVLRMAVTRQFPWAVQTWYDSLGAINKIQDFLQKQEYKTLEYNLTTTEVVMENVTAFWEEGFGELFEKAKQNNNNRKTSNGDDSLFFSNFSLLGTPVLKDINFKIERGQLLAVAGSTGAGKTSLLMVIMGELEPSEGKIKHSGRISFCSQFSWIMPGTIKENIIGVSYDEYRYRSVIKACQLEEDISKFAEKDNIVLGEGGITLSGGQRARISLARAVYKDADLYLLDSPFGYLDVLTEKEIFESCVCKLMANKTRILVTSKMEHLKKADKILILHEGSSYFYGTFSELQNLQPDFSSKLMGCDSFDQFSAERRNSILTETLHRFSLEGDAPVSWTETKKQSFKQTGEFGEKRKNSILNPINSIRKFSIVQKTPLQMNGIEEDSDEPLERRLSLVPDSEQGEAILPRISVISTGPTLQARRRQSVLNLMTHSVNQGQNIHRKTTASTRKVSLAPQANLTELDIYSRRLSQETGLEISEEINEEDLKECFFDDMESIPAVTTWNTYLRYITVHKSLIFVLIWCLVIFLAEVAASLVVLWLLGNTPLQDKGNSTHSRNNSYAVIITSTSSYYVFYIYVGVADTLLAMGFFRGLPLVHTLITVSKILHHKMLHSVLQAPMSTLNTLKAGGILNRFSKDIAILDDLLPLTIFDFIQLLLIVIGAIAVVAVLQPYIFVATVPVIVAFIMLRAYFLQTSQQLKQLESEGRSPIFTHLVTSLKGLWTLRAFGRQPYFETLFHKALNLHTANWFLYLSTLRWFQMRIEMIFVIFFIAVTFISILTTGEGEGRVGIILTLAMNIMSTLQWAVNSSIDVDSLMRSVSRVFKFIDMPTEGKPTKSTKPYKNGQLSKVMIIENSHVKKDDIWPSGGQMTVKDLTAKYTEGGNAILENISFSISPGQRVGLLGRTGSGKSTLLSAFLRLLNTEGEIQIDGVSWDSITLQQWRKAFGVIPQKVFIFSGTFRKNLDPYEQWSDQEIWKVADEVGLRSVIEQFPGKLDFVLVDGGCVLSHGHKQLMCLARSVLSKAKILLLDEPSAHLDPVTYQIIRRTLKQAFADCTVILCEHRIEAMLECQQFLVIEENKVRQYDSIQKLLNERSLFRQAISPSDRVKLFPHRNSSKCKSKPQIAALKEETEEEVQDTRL
Procedure: (§1) Screening procedures. Screening of compounds for activity was carried out using a Beckman Coulter platform equipped with FLUOstar fluorescence plate readers (Optima; BMG Labtech) with dual syringe pumps and 500±10 nm excitation and 535±15 nm emission filters (Chroma Corp.). For the corrector assay, FRT cells were grown at 37° C./5% CO2 for 18-24 h and then incubated for 18-24 h with 100 μL of medium containing test compounds (25 μM final concentration). At the time of the assay, cells were washed with PBS and then incubated for 10 min with PBS containing forskolin (20 μM) and genistein (50 μM). For the potentiator assay, FRT cells were grown at 37° C./5% CO2 for 18-24 h and then for 18-24 h at 27° C. At the time of the assay, cells were washed with PBS and then incubated for 10 min with PBS (50 μL) containing forskolin (20 μM) and test compound (0-25 μM final concentration). For both the corrector and potentiator assays, each well was assayed individually for I^− influx by recording fluorescence continuously (200 ms per point) for 2 s (baseline) and then for 12 s after rapid addition of 165 μL PBS in which 137 mM Cl^− was replaced by I^−. Initial I^− influx rate was computed by fitting the final 11.5 seconds of the data to an exponential for extrapolation of initial slope, which was normalized for background-subtracted initial fluorescence. All compound plates contained negative controls and positive controls (10 μM Corr-4a for corrector assay; 50 μM genistein for potentiator assay).
(§2) Screening of about 110,000 small molecules was done to identify new ΔF508-CFTR corrector scaffolds having high correction efficiency and/or having independent potentiator activity. […] FRT cells co-expressing human ΔF508-CFTR and a halide-sensing YFP were incubated with test compounds at 37° C. (corrector assay) or 27° C. (potentiator assay). ΔF508-CFTR function was assayed in a plate reader from YFP fluorescence quenching in response to iodide addition in the presence of forskolin (20 μM) plus genistein (50 μM) for corrector assay, or forskolin (20 μM) alone for potentiator assay. As shown in FIG. 1A (left), primary screening for corrector activity was done using a cell-based fluorescence assay of iodide influx in which FRT cells expressing ΔF508-CFTR and an iodide-sensitive YFP were incubated with test compounds at 10 μM for 18-24 h prior to assay. Iodide influx was measured by addition of extracellular iodide in the presence of a potentiator (50 μM genistein) and cAMP agonist (20 μM forskolin). Compound efficacy and potency (from concentration-dependence studies) in the corrector assay were compared to reference bithiazole Corr-4a (10 μM) and to low-temperature rescued cells. Active compounds were counter-screened for potentiator activity (FIG. 1A, right) in which iodide influx was measured in the ΔF508-CFTR expressing FRT cells after low-temperature rescue and in the presence of 20 μM forskolin.
(§3) Screening procedures. Plate reader activity assay was carried out using a Beckman Coulter platform containing a robotic arm, CO2 incubator containing microplate carousel, plate-washer, liquid handling work station, bar code reader, de-lidding station, plate sealer, and FLUOstar fluorescence plate readers (Optima; BMG LABTECH Gmbh), equipped with dual syringe pumps and 500±10 nm excitation and 535±15 nm emission filters (Chroma Corp.). For the corrector assay, ΔF508-CFTR-expressing FRT cells were grown at 37° C. (90% humidity; 5% CO2) for 18-24 h and then incubated for 18-24 h with 100 μL of medium containing test compounds (0-25 μM final concentration). At the time of the assay, cells were washed with PBS and then incubated for 10 min with PBS containing forskolin (20 μM) and genistein (50 μM). For the potentiator assay, FRT cells were grown at 37° C. (90% humidity; 5% CO2) for 18-24 h and then for 18-24 h at 27° C. […]

ΔF508-CFTR [2] = target: T1, ΔF508-CFTR; test: Corrector assay, YFP fluorescence plate reader iodide influx in ΔF508-CFTR expressing FRT cells; format: cell-based; conditions: for Corrector Vmax / EC50 / Corrector EC50: 18-24 h with compound at 37° C., forskolin 20 μM + genistein 50 μM; for corrector activity, comparison in words: propylene tether, methoxy position on arylamide; for corrector and potentiator activities, in words: concentration-dependence in corrector and potentiator I− influx assays (FIG. 2, FIG. 7)
Procedure: as §1, §2, §3

[3] = Table VIII, FRT cells 18-24 h at 27° C., forskolin 20 μM + test compound, I− influx
[4] = Table VIII, FRT cells, I− influx
[5] = Table IX, additional experiments, 18-24 h at 27° C., forskolin 20 μM + test compound
[6] = Table IX, additional experiments

## COc1ccccc1C(=O)NCCNc1nc2cc(C)cc(C)c2cc1C#N [drawing 147]
ΔF508-CFTR [1]; [3]
  EC50: 2.3 µM
  Potentiator Vmax: 154 µM/s
ΔF508-CFTR [2]; [4]
  Corrector Vmax: 114 µM/s

## COc1cccc(C(=O)NCCCNc2nc3cc(C)cc(C)c3cc2C#N)c1 [Compound AW8]
ΔF508-CFTR [2]
  corrector activity, comparison in words: greater corrector activity than Compound AW7

## COc1cccc(C(=O)NCCNc2nc3cc(C)cc(C)c3cc2C#N)c1 [drawing 164]
ΔF508-CFTR [1]; [5]
  EC50: 5.9 ± 0.5 µM
  Potentiator Vmax: 216 µM/s
ΔF508-CFTR [2]; [6]
  Corrector Vmax: 300 µM/s
  EC50: 2.2 ± 0.3 µM

## COc1ccc(C(=O)N2CCN(c3nc4cc(C)cc(C)c4cc3C#N)CC2)cc1 [drawing 154]
ΔF508-CFTR [1]; [3]
  EC50: 1.3 µM
  Potentiator Vmax: 281 µM/s
ΔF508-CFTR [2]; [4]
  Corrector Vmax: inactive

## COc1cccc(C(=O)N2CCN(c3nc4cc(C)cc(C)c4cc3C#N)CC2)c1 [drawing 153]
ΔF508-CFTR [1]; [3]
  EC50: 1.2 µM
  Potentiator Vmax: 200 µM/s
ΔF508-CFTR [2]; [4]
  Corrector Vmax: inactive

## COc1ccc(S(=O)(=O)N2CCN(c3nc4ccc(C)cc4cc3C#N)CC2)cc1 [drawing 140]
ΔF508-CFTR [1]; [3]
  EC50: 3.8 µM
  Potentiator Vmax: 72 µM/s
ΔF508-CFTR [2]; [4]
  Corrector Vmax: 102 µM/s
  EC50: 5 µM

## COc1cccc(OC)c1C(=O)NCCNc1nc2cc(C)cc(C)c2cc1C#N
ΔF508-CFTR [1]; [5]
  EC50: 11.5 ± 1 µM
  Potentiator Vmax: 119 µM/s
ΔF508-CFTR [2]; [6]
  Corrector Vmax: 111 µM/s
  EC50: 3.7 ± 0.6 µM

## COc1ccc(C(=O)NCCNc2nc3cc(C)cc(C)c3cc2C#N)cc1OC [drawing 185]
ΔF508-CFTR [1]; [5]
  EC50: 48 ± 5 µM
  Potentiator Vmax: 216 µM/s
ΔF508-CFTR [2]; [6]
  Corrector Vmax: 380 µM/s
  EC50: 1.5 ± 0.4 µM

## Cc1cc(C)c2cc(C#N)c(N3CCN(C(=O)c4cccnc4)CC3)nc2c1 [drawing 156]
ΔF508-CFTR [1]; [3]
  Potentiator EC50: inactive
  Potentiator Vmax: inactive

## Cc1cc(C)c2cc(C#N)c(NCCNC(=O)c3ccncc3)nc2c1 [drawing 151]
ΔF508-CFTR [1]; [3]
  Potentiator Vmax: 220 µM/s
ΔF508-CFTR [2]; [4]
  Corrector Vmax: 172 µM/s
  EC50: 9.1 µM

## COc1ccc(C(=O)NCCNc2nc3ccc(C)cc3cc2C#N)cc1OC [drawing 138]
ΔF508-CFTR [1]; [3]
  EC50: 15 µM
  Potentiator Vmax: 297 µM/s
ΔF508-CFTR [2]; [4]
  Corrector Vmax: 281 µM/s
  EC50: 3.9 µM

## COc1ccc(C(=O)NCCCNc2nc3cc(C)cc(C)c3cc2C#N)cc1 [drawing 178]
ΔF508-CFTR [1]; [5]
  Potentiator Vmax: 231 µM/s
ΔF508-CFTR [2]; [6]
  Corrector Vmax: 112 µM/s
  EC50: 4.3 ± 0.2 µM

## Cc1cc(C)c2cc(C#N)c(NCCCNC(=O)c3cccnc3)nc2c1 [drawing 162]
ΔF508-CFTR [1]; [3]
  EC50: 16 µM
  Potentiator Vmax: 115 µM/s
ΔF508-CFTR [2]; [4]
  Corrector EC50: inactive
  Corrector Vmax: inactive

## COc1ccc(S(=O)(=O)N2CCN(c3nc4ccc(C)cc4cc3C#N)CC2)cc1 [Compound 05]
ΔF508-CFTR [2]
  corrector and potentiator activities, in words: dual activities

## CCOc1ccccc1NC(=S)NCCNc1nc2c(C)cccc2cc1C#N [Compound 14]
ΔF508-CFTR [2]
  corrector and potentiator activities, in words: potentiator-only activity

## Cc1cc(C)c2cc(C#N)c(NCCCNC(=O)c3ccccn3)nc2c1 [drawing 161]
ΔF508-CFTR [1]; [3]
  EC50: 6.1 µM
  Potentiator Vmax: 233 µM/s

## COc1ccc2nc(N3CCN(C(=O)c4ccccc4F)CC3)c(C#N)cc2c1
ΔF508-CFTR [1]; [3]
  EC50: 11 µM
  Potentiator Vmax: 195 µM/s
ΔF508-CFTR [2]; [4]
  Corrector Vmax: 140 µM/s
  EC50: 4.2 µM

## COc1ccc(C(=O)NCCNc2nc3cc(C)cc(C)c3cc2C#N)c(OC)c1
ΔF508-CFTR [1]; [5]
  EC50: 55 ± 3.5 µM
  Potentiator Vmax: 426 µM/s
ΔF508-CFTR [2]; [6]
  Corrector Vmax: 108 µM/s
  EC50: 4.2 ± 0.4 µM

## Cc1cc(C)c2cc(C#N)c(NCCCNC(=O)c3ccncc3)nc2c1 [drawing 181]
ΔF508-CFTR [1]; [5]
  EC50: 13.2 ± 0.4 µM
  Potentiator Vmax: 53 µM/s
ΔF508-CFTR [2]; [6]
  Corrector Vmax: 61 µM/s
  EC50: 8.2 ± 0.4 µM

## COc1cccc(C(=O)NCCCNc2nc3cc(C)cc(C)c3cc2C#N)c1 [drawing 159]
ΔF508-CFTR [1]; [3]
  EC50: 4.6 µM
  Potentiator Vmax: 147 µM/s
ΔF508-CFTR [2]; [4]
  Corrector Vmax: 134 µM/s

## COc1cccc(C(=O)NCCCNc2nc3cc(C)cc(C)c3cc2C#N)c1 [drawing 177]
ΔF508-CFTR [1]; [5]
  Potentiator Vmax: 147 µM/s
ΔF508-CFTR [2]; [6]
  Corrector Vmax: 134 µM/s

## Cc1cc(C)c2cc(C#N)c(NCCNC(=O)c3cccs3)nc2c1 [drawing 139]
ΔF508-CFTR [1]; [3]
  EC50: 14 µM
  Potentiator Vmax: 289 µM/s
ΔF508-CFTR [2]; [4]
  Corrector Vmax: 228 µM/s
  EC50: 14 µM

## Cc1cc(C)c2cc(C#N)c(NCCNC(=O)c3cccs3)nc2c1 [Compound 03]
ΔF508-CFTR [2]
  corrector and potentiator activities, in words: dual activities

## COc1ccc(C(=O)NCCNc2nc3cc(C)cc(C)c3cc2C#N)cc1OC [Compound 103]
ΔF508-CFTR [2]
  corrector and potentiator activities, in words: both corrector and potentiator activities

## COc1cccc(C(=O)N2CCN(c3nc4cc(C)cc(C)c4cc3C#N)CC2)c1 [Compound AW2]
ΔF508-CFTR [1]
  potentiator activity, in words: significant potentiator activity

## Cc1cc(C)c2cc(C#N)c(N3CCN(C(=O)c4ccccn4)CC3)nc2c1 [drawing 155]
ΔF508-CFTR [1]; [3]
  Potentiator Vmax: 102 µM/s
ΔF508-CFTR [2]; [4]
  Corrector Vmax: inactive

## COc1ccc(C(=O)N2CCN(c3nc4cc(C)cc(C)c4cc3C#N)CC2)cc1 [Compound AW3]
ΔF508-CFTR [1]
  potentiator activity, in words: significant potentiator activity
ΔF508-CFTR [2]
  corrector and potentiator activities, in words: potentiator-only activity

## COc1ccc(C(=O)NCCNc2nc3ccc(C)cc3cc2C#N)cc1OC [Compound 02]
ΔF508-CFTR [2]
  corrector and potentiator activities, in words: corrector and potentiator activities comparable to those of Compound 22

## Cc1cc(C)c2cc(C#N)c(NCCCNC(=O)c3ccncc3)nc2c1 [drawing 163]
ΔF508-CFTR [2]; [4]
  Corrector EC50: inactive
  Corrector Vmax: inactive

## COc1ccc(C(=O)NCCCNc2nc3cc(C)cc(C)c3cc2C#N)cc1 [Compound AW9]
ΔF508-CFTR [2]
  corrector activity, comparison in words: greater corrector activity than Compound AW7

## COc1ccc(C(=O)NCCNc2nc3cc(C)cc(C)c3cc2C#N)nc1 [Compound 110]
ΔF508-CFTR [2]
  corrector and potentiator activities, in words: both corrector and potentiator activities

## Cc1cc(C)c2cc(C#N)c(NCCNC(=O)c3cccnc3)nc2c1 [Compound CP5]
ΔF508-CFTR [2]
  corrector and potentiator activities, in words: both corrector and potentiator activities

## COc1ccc(C(=O)NCCNc2nc3c(C)cccc3cc2C#N)cc1OC [Compound 01]
ΔF508-CFTR [2]
  corrector and potentiator activities, in words: corrector and potentiator activities comparable to those of Compound 22
